Source: paper PMC12024234, “Antioxidant, Anti-Inflammatory, and Oral Bioavailability of Novel Sulfonamide Derivatives of Gallic Acid” (Antioxidants, 2025)
Entries after “also recorded” stand apart in the source; their conditions may differ.

Legend:
CYP2D6 [1] = molecular target: T1, CYP2D6 (Homo sapiens, UniProt P10635); assay: Metabolism by cytochrome P450 2D6 (CypExpress), HPLC; assay type: in vitro ADME; conditions: 4 h
T1 construct: purchased Sigma Aldrich C4982
Protocol: The enzymatic activity of cytochrome P450 2D6 (CYP2D6) was evaluated following the CypExpress protocol (C4982, Sigma Aldrich, Darmstadt, Germany). The reaction buffer consisted of 5 mM glucose-6-phosphate (G6P), 2 mM nicotinamide adenine dinucleotide phosphate (NADP+), and 3,4,5-TMBS prepared in PBS at concentrations of 1000 and 1500 µM. Diltiazem was used as a positive control. The reaction was initiated by adding CYP2D6, and the mixture was vortexed for 5 min. The samples were then incubated at 37 °C with gentle shaking at 100 rpm for 4 h. The reaction was terminated by adding acetonitrile, followed by centrifugation at 800 rpm for 10 min. The supernatant was collected and analyzed using HPLC.

CYP2D6 [2] = molecular target: T1, CYP2D6; assay: as above; assay type: in vitro ADME
[3] = DPPH radical scavenging assay
Protocol: The antioxidant properties of the compounds under study were examined using the 2,2-Diphenyl-1-picrylhydrazyl (DPPH) assay, following a well-established protocol. A DPPH solution was prepared at a concentration of 0.1 mM in methanol. […] To ensure proper reaction, the mixtures were kept in the dark and incubated at room temperature for 30 min. After incubation, the absorbance of each sample was measured at 517 nm using a UV-VIS spectrophotometer. Gallic acid was used as the reference standard, and methanol served as the blank control.
The ability of the compounds to scavenge free radicals was determined by observing the reduction of DPPH at 517 nm, with lower absorbance values indicating higher antioxidant activity. The half-maximal inhibitory concentration (IC50), defined as the concentration of the compound needed to neutralize 50% of the DPPH radicals, was calculated from the dose–response curve. All experiments were performed in triplicate, and the results are reported as the mean of three independent trials. This method is widely recognized for its reliability and reproducibility in evaluating the antioxidant potential of chemical compounds.

[4] = Oral bioavailability / pharmacokinetics in rats; assay type: in vivo, Sprague Dawley rats; conditions: rat serum; for Tmax: rat, serum, po
Protocol: Male Sprague Dawley rats, aged 7–9 weeks and weighing 220 ± 20 g on average, were used for bioavailability studies. The animals were housed in the Laboratory Animal Research Unit at the University of Petra Pharmaceutical Center under controlled conditions: a temperature of 23 ± 2 °C, humidity of 55–65%, and a 12 h light/dark cycle. Prior to the experiments, the rats underwent a 10-day acclimatization period with free access to standard food and water. All procedures complied with the University of Petra’s animal use guidelines, which adhere to the standards of the Federation of European Laboratory Animal Sciences Association (FELASA). The rats were divided into three groups (n = 6 per group) and administered suspensions of GA, 3,4,5-TMBS, or 3,4,5-THBS prepared in 5% carboxymethylcellulose. Each compound was administered orally at a dose of 100 mg/kg, based on previous studies. Blood samples were collected from the retro-orbital plexus at 0.5, 1, 2, 3, 4, 6, 10, and 24 h post-administration. The samples were centrifuged at 5000 rpm for 10 min, and the serum was mixed with acetonitrile in a 1:3 ratio. After a second centrifugation at 5000 rpm for 15 min, the supernatant was collected for high-performance liquid chromatography (HPLC) analysis. HPLC analysis was conducted using a Shimadzu Class VP series system equipped with an LC-10AT VP pump, an SIL-10AD VP autosampler, and an SCL-10AVP system (Shimadzu, Kyoto, Japan). A C18 column (25 cm × 4.6 mm, 5 μm) was used, with a photodiode array detector set to a wavelength range of 200–400 nm. The mobile phase for TMBS and THBS consisted of a 50:50 (v/v) mixture of deionized water and acetonitrile containing 0.1% trifluoroacetic acid, flowing at 1 mL/min. For GA, the mobile phase was a 70:30 mixture of methanol and a water/sulfuric acid solution (100:2), also at a flow rate of 1 mL/min. The retention times for THBS and TMBS were 2.39 and 3.47 min, respectively, while GA eluted at 2.4 min, all detected at 254 nm. Results were analyzed using Lab Solution Software LC (version 5.3) and represent the average of three measurements.

HIEC-6 cells = assay: Cell viability CCK-8 assay in HIEC-6; assay type: cell-based, Human; conditions: 24 h incubation
Protocol: Human intestinal epithelial cells (HIEC-6), originally obtained from the American Type Culture Collection (ATCC), were cultured in Opti-MEM™ I Reduced Serum Medium (Cat. No. 31985) supplemented with 20 mM HEPES, 10 mM L-glutamine, 10 ng/mL epidermal growth factor, and 4% fetal bovine serum (FBS) (New York, NY, USA). Cells were maintained in a humidified 5% CO2 incubator at 37 °C. Cell viability was assessed using the CCK-8 assay, a colorimetric method based on the reduction of water-soluble tetrazolium salts (WST-8) to a water-soluble formazan dye, with the resulting color intensity proportional to the number of viable cells. Briefly, cells were harvested at approximately 80% confluence, detached using trypsin-EDTA, and centrifuged at 1000 rpm for 5 min. The cell pellet was resuspended in fresh medium, and the density was adjusted to 1 × 10^6 cells/mL. A volume of 100 µL (1 × 10^5 cells/well) was seeded into a 96-well plate, with one well containing the medium only as background control. […] Subsequently, 10 µL of CCK-8 reagent was added to each well, and the plate was incubated for 4 h. Absorbance was measured at 450 nm using a microplate reader, results are expressed as the mean ± standard deviation (SD).

COX-2 = molecular target: T2, COX-2 (Homo sapiens, UniProt P35354); assay: Cyclooxygenase (COX-2) activity assay in HIEC-6 cell lysate; assay type: biochemical
T2 construct: endogenous in cells; host or cells: HIEC-6 cell lysate
T2 sequence (P35354 18-604): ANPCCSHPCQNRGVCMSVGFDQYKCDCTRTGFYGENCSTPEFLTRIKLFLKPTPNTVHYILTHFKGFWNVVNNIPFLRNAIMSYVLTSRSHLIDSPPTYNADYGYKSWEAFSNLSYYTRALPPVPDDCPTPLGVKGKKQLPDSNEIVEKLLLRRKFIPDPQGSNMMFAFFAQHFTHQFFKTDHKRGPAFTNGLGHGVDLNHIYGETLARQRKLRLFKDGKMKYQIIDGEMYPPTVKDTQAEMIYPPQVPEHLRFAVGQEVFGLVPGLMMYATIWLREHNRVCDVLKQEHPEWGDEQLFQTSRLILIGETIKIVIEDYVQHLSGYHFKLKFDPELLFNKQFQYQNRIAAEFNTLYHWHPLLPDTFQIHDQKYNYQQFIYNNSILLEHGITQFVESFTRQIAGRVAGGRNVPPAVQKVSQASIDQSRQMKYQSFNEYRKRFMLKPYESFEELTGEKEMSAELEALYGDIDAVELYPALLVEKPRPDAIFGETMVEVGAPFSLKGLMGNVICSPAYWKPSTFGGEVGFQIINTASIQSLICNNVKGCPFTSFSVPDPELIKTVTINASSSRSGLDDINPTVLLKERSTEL
Protocol: Cyclooxygenase (COX-2) activity assay was performed in HIEC-6 cells according to the manufacturer’s instructions (ab204699). Resorufin standards (0–20 pmol/well) were used to generate a calibration curve for quantifying sample concentrations. HIEC-6 cells were centrifuged at 500× g for 3 min and washed with PBS. The cell pellet was lysed in an ice-cold lysis buffer containing 10% Triton X-100 and a protease inhibitor cocktail in PBS for 5 min. The lysate was then centrifuged at 12,000× g for 3 min at 4 °C, and the supernatant was collected and kept on ice. Protein concentration in the supernatant was determined using a Bradford assay, with a bovine serum albumin standard curve (0–2000 µg/mL). […] This mixture was added to a 96-well plate, and the reaction was initiated by adding arachidonic acid (COX-2 substrate) dissolved in NaOH solution. The enzymatic reaction produced fluorescent resorufin dye, which was measured at excitation/emission wavelengths of λEx/Em = 535/587 nm.

[5] = male, Sprague Dawley, 100 mg/kg, n = 6

T1 sequence (P10635 whole entry): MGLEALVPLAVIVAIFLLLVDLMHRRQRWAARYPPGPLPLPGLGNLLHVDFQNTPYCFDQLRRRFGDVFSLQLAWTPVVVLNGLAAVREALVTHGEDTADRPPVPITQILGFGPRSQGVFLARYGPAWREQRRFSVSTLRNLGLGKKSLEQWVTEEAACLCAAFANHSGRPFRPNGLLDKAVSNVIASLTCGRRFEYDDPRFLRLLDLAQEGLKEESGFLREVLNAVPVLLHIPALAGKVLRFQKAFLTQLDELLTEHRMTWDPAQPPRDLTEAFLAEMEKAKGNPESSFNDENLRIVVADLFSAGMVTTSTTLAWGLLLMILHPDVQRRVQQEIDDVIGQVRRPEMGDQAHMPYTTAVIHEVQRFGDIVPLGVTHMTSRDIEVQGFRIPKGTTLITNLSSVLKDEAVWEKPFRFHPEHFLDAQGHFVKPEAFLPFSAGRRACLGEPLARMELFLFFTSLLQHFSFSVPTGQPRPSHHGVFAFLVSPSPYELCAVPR

SMILES: COc1ccc([C@@H]2Sc3ccccc3N(CCN(C)C)C(=O)[C@@H]2OC(C)=O)cc1 [Diltiazem, reference compound]
- Metabolism by CYP2D6 (concentration) (CYP2D6 [1]; 1000 µM): 849.91 ± 0.62 µM
- Metabolism by CYP2D6 (concentration) (CYP2D6 [1]; 1500 µM): 1235 ± 6.02 µM
- Metabolism by CYP2D6 (concentration) (CYP2D6 [2]; 1000 µM, 1 h): 828 ± 21.7 µM
- Metabolism by CYP2D6 (concentration) (CYP2D6 [2]; 1000 µM, 3 h): 829 ± 78.1 µM
- Metabolism by CYP2D6 (concentration) (CYP2D6 [2]; 1500 µM, 1 h): 1287 ± 12.8 µM
- Metabolism by CYP2D6 (concentration) (CYP2D6 [2]; 1500 µM, 3 h): 1460 ± 133 µM

SMILES: O=C(O)c1cc(O)c(O)c(O)c1 [GA, 3,4,5-trihydroxybenzoic acid, reference compound]
- EC50 [3]: ~30 µM
- DPPH radical scavenging activity ([3]; at 1000 µM): exceeding 90%
- ROS scavenging activity ([3]; at 1000 µM (abstract)): 96%
- Cmax ([4]; male, Sprague Dawley, 100 mg/kg (table: 100 mg dose), n = 6): 2140 ± 880 ng/mL
- AUC(0-inf) [4, 5]: 13000 ± 5620 ng·h/mL
- AUC(0-t) [4, 5]: 9320 ± 4610 ng·h/mL
- CL/F [4, 5]: 148 mL/min/kg
- half-life [4, 5]: 3.6 ± 0.94 h
- MRT inf ([4]; male, Sprague Dawley, 100 mg/kg, n = 6, read-out: MRT0–∞): 7.66 ± 2.99 h
- Tmax ([4]; male, Sprague Dawley, 100 mg/kg): 1.3 h
- Tmax [4, 5]: 1.3 ± 0.22 h
- Vz ([4]; 100 mg/kg, n = 6): 55.46 ± 23.99 (mg)/(μg/mL)
- IC50 (HIEC-6 cells): 47.6 ± 2.39 µM
- IC50 (HIEC-6 cells; Homo sapiens, HIEC-6, 24 h): ~47 µM
- COX-2 inhibition compared to ibuprofen (COX-2; 1 µM): weaker COX-2 inhibition than ibuprofen
- COX-2 inhibition compared to ibuprofen (COX-2; 50 µM): low COX-2 inhibition effect; also recorded: weaker COX-2 inhibition than ibuprofen
